This note sets out measurements from patent US6046228A, “Anti-viral pharmaceutical compositions containing saturated 1,2-dithiaheterocyclic compounds and uses thereof” (priority 1999, dated 2000).

The test system of assay [1] is CEM-SS cells. Kind of assay: XTT assay, cytotoxicity (IC50), CEM-SS cells. Type of assay: cell-based. The procedure: (§1) Initial anti-HIV screening was performed with CEM-SS cells and HIV-1RFusing the XTT cytoprotection assay as previously described (Weislow et al., J. National Cancer Inst. 81: 577-586, (1989)). HIV-1 isolates included common laboratory stains (RF, IIIB and MN), as well as a panel of HIV-1 clinical isolates (Cushman et al., J. Med. Chem. 37: 3040-3050, (1994)). The pyridone-resistant HIV-1A17 isolate (Nunberg et al., J. Virol., 65: 4887-4892 (1991)) was obtained from Emilio Emini at Merck Sharpe and Dohme Laboratories. Phytohemagglutinin-stimulated human peripheral blood lymphocytes (PBLs) and fresh monocyte-macrophage (Mono/MF) cultures were prepared and utilized in antiviral assays as previously described (Rice et al., Proc. Nat'l. Academy Science, USA 90: 9721-9724, (1993)); (Cushman et al., J. Med. Chem. 37: 3040-3050, (1994)). EC50 values for these cultures indicate the drug concentration that provided a 50% reduction in viral p24 production. […] The compounds can be synthesized according to the teachings of Singh et al., Sulfur Letters 8: 107-114, (1988). […] MT-2, MT-4, U1, HeLa-CD4-LTR-β-gal and 174xCEM cells were obtained from the AIDS Research and Reference Program (National Institute of Allergy and Infectious Disease, National Institutes of Health, Bethesda, Md. USA), as were the HIV-2MS and the AZT-resistant HIV-1G910-6 isolates.
(§2) Racemate and enantiomers of the cis-1,1-dioxo[1,2]dithiane-4,5-diol were synthesized and evaluated for antiviral activity in the XTT assay as described hereinabove.
(Formazan colour is commonly taken as a measure of viable cells.)

Assay [2] deals with monocyte-macrophage (Mo/M.PHI.) cultures. Nature of the assay: cytotoxicity in monocyte-macrophage cultures. Format: cell-based. The procedure: (§3) Initial anti-HIV screening was performed with CEM-SS cells and HIV-1RFusing the XTT cytoprotection assay as previously described (Weislow et al., J. National Cancer Inst. 81: 577-586, (1989)). HIV-1 isolates included common laboratory stains (RF, IIIB and MN), as well as a panel of HIV-1 clinical isolates (Cushman et al., J. Med. Chem. 37: 3040-3050, (1994)). The pyridone-resistant HIV-1A17 isolate (Nunberg et al., J. Virol., 65: 4887-4892 (1991)) was obtained from Emilio Emini at Merck Sharpe and Dohme Laboratories. Phytohemagglutinin-stimulated human peripheral blood lymphocytes (PBLs) and fresh monocyte-macrophage (Mono/MF) cultures were prepared and utilized in antiviral assays as previously described (Rice et al., Proc. Nat'l. Academy Science, USA 90: 9721-9724, (1993)); (Cushman et al., J. Med. Chem. 37: 3040-3050, (1994)). EC50 values for these cultures indicate the drug concentration that provided a 50% reduction in viral p24 production. […] The compounds can be synthesized according to the teachings of Singh et al., Sulfur Letters 8: 107-114, (1988). The 4,5-cis-dihydroxy(1,1-dioxy-1,2,-dithiohexane) compound (NSC 624151) has been abbreviated as 624151 for convenience. MT-2, MT-4, U1, HeLa-CD4-LTR-β-gal and 174xCEM cells were obtained from the AIDS Research and Reference Program (National Institute of Allergy and Infectious Disease, National Institutes of Health, Bethesda, Md. USA), as were the HIV-2MS and the AZT-resistant HIV-1G910-6 isolates.

Assay [3] has as its system HIV-1RF. Kind of assay: XTT cytoprotection (cytopathicity) anti-HIV assay, CEM-SS cells. Format: cell-based. The settings on record: for antiviral activity / efficacy: in words. The procedure:
as §1, §2

The target of assay [4] is T1, HIV-1 p7NC protein (Human immunodeficiency virus type 1 group M subtype B, UniProt P04591).
T1 construct: recombinant HIV-1 p7NC protein
Kind of assay: Trp37 zinc finger fluorescence assay (zinc ejection from p7NC). Type of assay: biochemical. The settings on record: for p7NC Trp37 Assay (RFU): 25 μM compound, listed as 693194. The protocol:
Fluorescence measurements of the Trp^37 residue in the C-terminal zinc finger of the recombinant HIV-1 p7NC protein were performed as previously described (Rice et al., Science 270:1194, 1995). The p7NC protein was prepared at 20 μg/ml in 10 mM sodium phosphate buffer (pH 7.0), treated with 25 μM of each compound, then after indicated time intervals the samples were diluted 1/10 in 10 mM sodium phosphate buffer (pH 7.0) and the fluorescence intensity measured. The excitation and emission wavelengths utilized with the Shimadzu RF5000 spectrofluorimeter were 280 nm and 351 nm, respectively. In an alternate assay, the zinc-selective fluorescent probe N-(6-methoxy-8quinolyl-)-p-toluenesulfonamide (TSQ, Molecular Probes, Eugene, Oreg.) originally described by Fredrickson (J. Neurosci. Meth. 20:91, 1987) was utilized to measure zinc released from the p7NC protein in vitro. Briefly, 2 μM recombinant HIV-1 p7NC protein in 10 mM sodium phosphate buffer, pH 7.0, 10% glycerol was treated with 10 μM 624151 ([…] total volume in 96-well plates), and the time-dependent increase in fluorescence was measured on a Labsystems Fluoroskan II (360 nm excitation filter and 460 nm emission filter) over a period of 2 hours. Induction of alterations of p7NC proteins within intact virions involved treatment of HIV-1MN for 1 hour at 37° C. with 25 μM test compound. Samples were centrifuged 1 hour at 4° C. under 18,000×g to pellet the virus from the drug. Virus pellets were resolved by non-reducing SDS-PAGE and analyzed by immunoblot using monospecific rabbit antisera to the purified p7NC protein.
^b The percent decrease in RFU was calculated based on measurement of
the initial fluorescence of the p7NC protein before and 10 minutes after
treatment with the 25 μM of compound at ambient temperature.
The ability of 624151 to chemically interact with the zinc fingers of the HIV-1 p7NC protein was initially determined by a fluorescence assay (Rice et al., Science 270:1194-1197, (1995)) that measures a loss in intrinsic fluorescence of the tryptophan (Trp^37) residue in the second finger of the protein that occurs upon loss of zinc from the finger (Summers et al., Protein Sci. 1:563, 1992). […] As the 624151 modifies the zinc finger thiolates and the zinc is ejected over time, the metal is bound by the TSQ fluorochrome (FIG. 1(B)).
Sodium Phosphate buffer, pH 7.0 in 1 ml was treated with 25 μM of
compound. At indicated times, the mixture was diluted 1/10 and the
relative fluorescence units (RFU) measured in a Shimadzu RF5000
spectrofluorimeter with […] and Em = 351 mn. Following
loss of zinc from the Cterminal zinc finger, the Trp37 residue folds away
from the # aqueous environment and experiences a loss of fluorescence.

In assay [5] the test system is HIV-1ADA. Kind of assay: antiviral assay in monocyte-macrophage cultures (p24). Format: cell-based. The settings on record: Human immunodeficiency virus 1, read-out: Mo/M.PHI. EC50. The protocol: as §3, with “isolates. […]” for “isolates.”
For assay [6], the target named is T2, HIV-1 integrase (Human immunodeficiency virus type 1 group M subtype B, UniProt P04585).
T2 construct: the purified HIV-1 protease and integrase enzymes
Nature of the assay: HIV-1 integrase activity. Format: biochemical. The settings on record: Table 6.

In assay [7] the target is T3, HIV-1 p66-p51 RT (Human immunodeficiency virus type 1 group M subtype B, UniProt P04585).
T3 construct: the purified HIV-1 p66-p51 RT enzyme
Nature of the assay: reverse transcriptase activity assay. Format: biochemical. The settings on record: nonphosphorylated control, in words. The protocol: The effects of 624151 on the in vitro activity of purified RT was determined by measurement of incorporation of [^3 H]TTP onto the poly(rA):oligo(dT)(rAdT) or poly(rC):oligo(dG)(rCdG) homopolymer template/primer systems. Samples (5 μL) were blotted onto DE81 paper, washed with 5% dibasic sodium phosphate as previously described (Buckheit et al., Antiviral Res. 21:247, (1993)), and then quantitated on a Packard Matrix 9600 dual beam counter. 3'-Azido-3'-deoxythymidine-5 '-triphosphateand UC38 (NSC 629243) served as positive controls for inhibition of RT. HIV-1 protease activity was quantitated by a reversed phase HPLC assay utilizing the […]Amide substrate (Multiple Peptide Systems, San Diego, Calif.) as previously described in Rice et al. (Proc. Nat'l. Academy of Science USA 9: 9721-9724, (1993)).

Assay [8] deals with HIV-1RF. Kind of assay: effect of increasing multiplicity of infection, CEM-SS cells. Format: cell-based. The settings on record: for pEC50: Human immunodeficiency virus 1, CEM-SS. The protocol: as §3
[9] abbreviates: Homo sapiens, CEM-SS, cytotoxicity, CEM-SS cells, read-out: XTT Assay IC50.
[10] abbreviates: Homo sapiens, CEM-SS, Table 5, cytotoxicity, read-out: IC50 Mean.
Where [11] appears, read: Human immunodeficiency virus 1, CEM-SS, Table 5, read-out: EC50 Mean.

pEC50, pIC50: −log10 of the molar value. “And” between values parts separate entries of the source, which are not always exact repeats. Equal entries are not always repeated. Where two headings read alike, the source gives them in different places.

With `[O-][S+]1C[C@@H](O)[C@@H](O)CS1` (relative stereo) [NSC 667090], the pIC50 in assay [1] (setting [9]) was 3.99; in assay [2] it was under 4.00. Also, in assay [3], the “antiviral activity / efficacy” value is “complete abolition of antiviral activity”. In assay [4] (in words), the “reactivity with the zinc fingers” value is “essentially a complete loss of reactivity with the zinc fingers”. In addition, the pEC50 in assay [5] was under 4.00.

Regarding `CC(=O)O[C@@H]1CSSC[C@H]1OC(C)=O` (relative stereo) [NSC 667092], the pIC50 was under 3.70 in assay [1] (setting [9]) and under 4.00 in assay [2]. Moreover, the “antiviral activity / efficacy” value in assay [3] was “complete abolition of antiviral activity”. Moreover, the “reactivity with the zinc fingers” value in assay [4] (in words) is on record as “essentially a complete loss of reactivity with the zinc fingers”. The pEC50 in assay [5] was under 4.00.

Regarding `O=S1(=O)C[C@H](O)[C@H](O)CS1` (single isomer, unassigned) [NSC 693194, (+)-cis-4,5-Dihydroxy-1,2-dithiane 1,1-dioxide], the pIC50 is 3.87 in assay [1] (Homo sapiens, CEM-SS, Table 5, cytotoxicity, read-out: IC50 Duplicates); 3.87 in assay [1] (setting [10]); 3.87 in assay [1] (setting [9]); 3.88 in assay [1] (Table 5, cytotoxicity, listed as 693194, read-out: IC50 Duplicates). In addition, the pEC50 was 4.80 in assay [3] (Human immunodeficiency virus 1, CEM-SS, CEM-SS cells, HIV-1RF, read-out: XTT Assay EC50); 4.79 in assay [3] (setting [11]); 4.73 and 4.86 in assay [3] (Table 5, listed as 693194, read-out: EC50 Duplicates). Further, the “inhibition of HIV-1 integrase” value in assay [6] is recorded as “NI100”. The “p7NC Trp37 Assay (RFU)” value amounted to 280 RFU in assay [4] (0 min), 146 RFU in assay [4] (3 min), 75 RFU in assay [4] (10 min) and 41 RFU in assay [4] (30 min).

As to `Cc1cn([C@H]2C[C@H](N=[N+]=[N-])[C@@H](CO)O2)c(=O)[nH]c1=O` [AZT, 3'-azido-3'-deoxythymidine], in assay [1] (setting [10]), the pIC50 was under 6.00. Also, the “inhibition of RT activity” value in assay [7] is “not inhibitory”. Moreover, the pEC50 in assay [3] (Human immunodeficiency virus 1, CEM-SS, Table 5, read-out: EC50 Duplicates) was 8.27; in assay [3] (setting [11]), 8.25; in assay [3] (Table 5, read-out: EC50 Duplicates), 8.24; in assay [8] (MOI 0.01) it was 7.72; in assay [8] (MOI 0.02), 7.62; in assay [8] (MOI 0.04) it was 5.80. The pEC50 was under 5.00 in assay [8] (MOI 0.08), under 5.00 in assay [8] (MOI 0.16), under 5.00 in assay [8] (MOI 0.32) and 7.72 in assay [8] (lowest MOI). The “loss of Trp37 fluorescence of p7NC” value in assay [4] (FIG. 1(A), 25 μM, in words) is reported as “not by AZT control”. The “effect of increasing the MOI on activity” value in assay [8] (in words) is “completely inactive after only a six-fold increase in the MOI”.

Usually pIC50 stands for the negative decadic logarithm of the IC50, by convention in mol/L.
